Measured values as given in PMC11963566, “A phase I, single-center, randomized, open-label, three-period crossover study to evaluate the drug–drug interaction between ZSP1273 and oseltamivir in healthy Chinese subjects” (Antimicrobial Agents and Chemotherapy, 2025).
Where two headings read alike, the source gives them in different places.

Experiments:
[1] = cited from earlier work
[2] = cited from earlier work; remark: listed apart in the source
[3] = for AUC0-t,ss / AUC0-τ,ss / AUC0-∞,ss / CLss/F / Cmax,ss / Vz/F / t1/2,ss / λz / Ctrough: arithmetic mean ± SD; for Tmax,ss: median (minimum, maximum)
clinical = details: human
[4] = Safety assessment: adverse events (CTCAE 5.0, MedDRA 23.1) in healthy subjects; type: in vivo, human
Experimental: Safety assessment was conducted from the first administration of the investigational drug until the end of the trial. Safety indicators included adverse events (AEs), serious adverse events (SAEs), clinical laboratory tests (hematology, biochemistry, and urinalysis), vital signs, physical examination, and 12-lead electrocardiogram.
The severity of AE was assessed according to the CTCAE 5.0 standard and includes grades 1 to 5. Based on the criteria for determining causality between drugs and adverse events, the relationship was classified into five levels: definitely related, probably related, possibly related, probably not related, definitely not related. Among them, definitely related, probably related, and possibly related are defined as drug-related AEs.
Adverse events were coded using Med DRA 23.1 Chinese ([30]) and analyzed based on system organ class (SOC) and preferred term (PT). Adverse events during the treatment period, drug-related adverse events, and serious adverse events were described by frequency, number of cases (n), and incidence rate (%) according to SOC, PT, and the highest severity classification.

[5] = doses up to 1,200 mg; cited from earlier work
influenza A = details: adult patients, especially 600 mg once per day; cited from earlier work
influenza A (2009 H1N1) = details: compared with oseltamivir or pimodivir; cited from earlier work
[6] = all subjects, no-effect boundary 80%–125%
[7] = SOC Gastrointestinal disorders, probably related
[8] = SOC General disorders and administration site conditions, possibly related
[9] = SOC Infections and infestations, probably not related
[10] = SOC Investigations, possibly related
[11] = SOC Investigations, probably not related
[12] = SOC Skin and subcutaneous tissue disorders, possibly related
[13] = healthy subjects, 5 days dosing
[14] = co-administration ZSP1273 600 mg QD + oseltamivir 75 mg BID, oral, 5 days, plasma, day 5
[15] = co-administration ZSP1273 + oseltamivir, plasma, day 5
[16] = co-administration versus monotherapy analysis
[17] = monotherapy (ZSP1273 600 mg QD or oseltamivir 75 mg BID, oral, 5 days), plasma, day 5
[18] = subjects with AUC_%Extrap >20.0% or Rsq <0.800 excluded

Structure (SMILES): CCC(CC)O[C@@H]1C=C(C(=O)O)C[C@H](N)[C@H]1NC(C)=O [Oseltamivir carboxylate, oseltamivir carboxylate]
- fraction excreted by the kidneys [1]: more than 99%
- plasma protein binding rate [2]: approximately 3%
- AUC0-∞,ss, geometric mean ratio co-administration/monotherapy [3, 6]: 87.1%
- AUC0-t,ss, geometric mean ratio co-administration/monotherapy ([3]; human, in vivo): 86.7%
- AUC0-τ,ss, geometric mean ratio co-administration/monotherapy ([3]; human, in vivo): 83.3%
- AUC0-∞,ss, intra-individual coefficient of variation ([3]; human, in vivo): 8.4%
- Cmax,ss, geometric mean ratio co-administration/monotherapy ([3]; human, in vivo): 80.4%
- AUC(0-t) (clinical; in vivo, AUC0-t,ss, geometric mean): 5080 ng·h/mL
- AUC (clinical; in vivo, AUC0-τ,ss, geometric mean): 3320 ng·h/mL
- AUC(0-inf) (clinical; in vivo, AUC0-∞,ss, geometric mean): 5170 ng·h/mL
- Cmax (clinical; in vivo, Cmax,ss, geometric mean): 393 ng/mL
- Tmax (clinical; in vivo, po, Tmax,ss): 4 h
- half-life (clinical; in vivo, po, t1/2,ss): 10.3 ± 1.6 h
- k el (clinical; plasma, po, 75 mg): 1.92e-05 s⁻¹

Structure (SMILES): O=C(O)[C@H]1C2CCC(CC2)[C@@H]1Nc1nc(-c2n[nH]c3ncc(F)cc23)nc(C2CC2)c1F [ZSP1273]
- plasma protein binding rate ([2]; in humans, not measured in this study, no reference given): greater than 98.9%
- Gastrointestinal disorders (SOC): Cases (%) ([4]; AE by system organ class): 5 (13.9) Cases (%)
- Gastrointestinal disorders (SOC): Occurrences ([4]; AE by system organ class): 5
- General disorders and administration site conditions (SOC): Cases (%) ([4]; AE by system organ class): 0 Cases (%)
- General disorders and administration site conditions (SOC): Occurrences ([4]; AE by system organ class): 0
- Infections and infestations (SOC): Cases (%) ([4]; AE by system organ class): 0 Cases (%)
- Infections and infestations (SOC): Occurrences ([4]; AE by system organ class): 0
- Investigations (SOC): Cases (%) ([4]; AE by system organ class): 8 (22.2) Cases (%)
- Investigations (SOC): Occurrences ([4]; AE by system organ class): 18
- Skin and subcutaneous tissue disorders (SOC): Cases (%) ([4]; AE by system organ class): 1 (2.8) Cases (%)
- Skin and subcutaneous tissue disorders (SOC): Occurrences ([4]; AE by system organ class): 1
- Diarrhea: Cases (%) [4, 7]: 5 (13.9) Cases (%)
- Diarrhea: Occurrences [4, 7]: 5
- Fever: Cases (%) [4, 8]: 0 Cases (%)
- Fever: Occurrences [4, 8]: 0
- Upper respiratory tract infection (URTI): Cases (%) [4, 9]: 0 Cases (%)
- Upper respiratory tract infection (URTI): Occurrences [4, 9]: 0
- Decreased blood triglycerides: Cases (%) [4, 10]: 0 Cases (%)
- Decreased blood triglycerides: Occurrences [4, 10]: 0
- Decreased high-density lipoprotein (HDL): Cases (%) [4, 10]: 1 (2.8) Cases (%)
- Decreased high-density lipoprotein (HDL): Occurrences [4, 10]: 1
- Decreased neutrophil count: Cases (%) [4, 10]: 0 Cases (%)
- Decreased neutrophil count: Occurrences [4, 10]: 0
- Increased blood cholesterol: Cases (%) [4, 10]: 2 (5.6) Cases (%)
- Increased blood cholesterol: Occurrences [4, 10]: 2
- Increased blood creatinine: Cases (%) [4, 10]: 3 (8.3) Cases (%)
- Increased blood creatinine: Occurrences [4, 10]: 3
- Increased blood triglycerides: Cases (%) [4, 10]: 4 (11.1) Cases (%)
- Increased blood triglycerides: Occurrences [4, 10]: 4
- Increased blood uric acid: Cases (%) [4, 10]: 2 (5.6) Cases (%)
- Increased blood uric acid: Occurrences [4, 10]: 2
- Increased gamma-glutamyl transferase (GGT): Cases (%) [4, 10]: 1 (2.8) Cases (%)
- Increased gamma-glutamyl transferase (GGT): Occurrences [4, 10]: 1
- Increased lipase: Cases (%) [4, 10]: 1 (2.8) Cases (%)
- Increased lipase: Occurrences [4, 10]: 1
- Increased low-density lipoprotein (LDL): Cases (%) [4, 10]: 2 (5.6) Cases (%)
- Increased low-density lipoprotein (LDL): Occurrences [4, 10]: 2
- Crystals present in urine: Cases (%) [4, 11]: 0 Cases (%)
- Crystals present in urine: Occurrences [4, 11]: 0
- Decreased hemoglobin: Cases (%) [4, 11]: 2 (5.6) Cases (%)
- Decreased hemoglobin: Occurrences [4, 11]: 2
- Increased urine specific gravity: Cases (%) [4, 11]: 0 Cases (%)
- Increased urine specific gravity: Occurrences [4, 11]: 0
- Nitrites present in urine: Cases (%) [4, 11]: 0 Cases (%)
- Nitrites present in urine: Occurrences [4, 11]: 0
- Positive urine occult blood: Cases (%) [4, 11]: 0 Cases (%)
- Positive urine occult blood: Occurrences [4, 11]: 0
- Protein detected in urine: Cases (%) [4, 11]: 0 Cases (%)
- Protein detected in urine: Occurrences [4, 11]: 0
- Acneiform dermatitis: Cases (%) [4, 12]: 0 Cases (%)
- Acneiform dermatitis: Occurrences [4, 12]: 0
- Maculopapular rash: Cases (%) [4, 12]: 1 (2.8) Cases (%)
- Maculopapular rash: Occurrences [4, 12]: 1
- diarrhea, incidence ([4]; drug-related adverse event): 13.9%
- increased blood triglycerides, incidence ([4]; drug-related adverse event): 11.1%
- subjects with drug-related adverse events, incidence ([4]; healthy subjects): 30.6%
- At least one treatment-emergent adverse event (TEAE): Cases (%) [4, 13]: 12 (33.3) Cases (%)
- At least one treatment-emergent adverse event (TEAE): Occurrences [4, 13]: 24
- At least one treatment-emergent adverse event related to drugs: Cases (%) [4, 13]: 11 (30.6) Cases (%)
- At least one treatment-emergent adverse event related to drugs: Occurrences [4, 13]: 22
- AUC0-∞,ss, intra-individual coefficient of variation ([3]; all subjects): 23.4%
- AUC0-∞,ss, geometric mean ratio co-administration/monotherapy [3, 6]: 91.8%
- AUC0-t,ss [3, 14]: 14,939.0 ± 6,027.0 (40.3%) h*ng/mL
- AUC0-τ,ss [3, 14]: 13,656.5 ± 4,758.0 (34.8%) h*ng/mL
- AUC0-∞,ss [3, 14]: 15,865.8 ± 6,635.4 (41.8%) h*ng/mL
- CLss/F [3, 14]: 48.6 ± 15.3 (31.4%) L/h
- Cmax,ss [3, 14]: 6,270.0 ± 3,369.7 (53.7%) ng/mL
- Vz/F [3, 14]: 923.8 ± 659.5 (71.4%) L
- t1/2,ss [3, 14]: 14.0 ± 10.3 (73.5%) h
- λz [3, 14]: 0.070 ± 0.041 (58.7%) 1 /h
- Tmax,ss [3, 14]: 1.50 (0.25, 4.00) h
- Ctrough ([3]; co-administration ZSP1273 600 mg QD + oseltamivir 75 mg BID, oral, 5 days, plasma): 77.7 ± 49.7 (64.0%) ng/mL
- AUC0-t,ss, geometric mean [3, 15]: 13,926.7 h*ng/mL
- AUC0-τ,ss, geometric mean [3, 15]: 12,964.7 h*ng/mL
- Cmax,ss, geometric mean [3, 15]: 5,466.0 ng/mL
- AUC0-∞,ss, geometric mean ([3]; co-administration ZSP1273 + oseltamivir, plasma, day 5, all subjects): 14,749.3 h*ng/mL
- AUC0-t,ss, intra-individual coefficient of variation [3, 16]: 19.9%
- AUC0-τ,ss, intra-individual coefficient of variation [3, 16]: 18.6%
- Cmax,ss, intra-individual coefficient of variation [3, 16]: 49.2%
- AUC0-∞,ss, geometric mean ([3]; co-administration, subjects with AUC_%Extrap >20.0% or Rsq <0.800 excluded): 14,219.8^b h*ng/mL
- AUC0-t,ss, geometric mean ratio co-administration/monotherapy ([3]; human, in vivo): 92.8%
- AUC0-τ,ss, geometric mean ratio co-administration/monotherapy ([3]; human, in vivo): 96.3%
- Cmax,ss, geometric mean ratio co-administration/monotherapy ([3]; human, in vivo): 99.9%
- AUC0-t,ss [3, 17]: 16,529.6 ± 7,808.2 (47.2%) h*ng/mL
- AUC0-τ,ss [3, 17]: 14,487.1 ± 5,519.8 (38.1%) h*ng/mL
- AUC0-∞,ss [3, 17]: 18,392.1 ± 12,058.8 (65.6%) h*ng/mL
- CLss/F [3, 17]: 47.4 ± 17.8 (37.5%) L/h
- Vz/F [3, 17]: 1,006.5 ± 1,265.7 (125.8%) L
- t1/2,ss [3, 17]: 17.8 ± 33.6 (189.1%) h
- λz [3, 17]: 0.074 ± 0.046 (62.5%) 1 /h
- Tmax,ss [3, 17]: 0.88 (0.25, 4.01) h
- Ctrough ([3]; monotherapy (ZSP1273 600 mg QD or oseltamivir 75 mg BID, oral, 5 days), plasma): 86.3 ± 77.4 (89.6%) ng/mL
- Cmax,ss ([3]; monotherapy (ZSP1273 tablets 600 mg QD or oseltamivir capsules 75 mg BID, oral, 5 days), plasma, day 5): 6,421.7 ± 3,660.6 (57.0%) ng/mL
- AUC0-t,ss, geometric mean ([3]; monotherapy, plasma, day 5): 15,031.4 h*ng/mL
- AUC0-τ,ss, geometric mean ([3]; monotherapy, plasma, day 5): 13,543.4 h*ng/mL
- Cmax,ss, geometric mean ([3]; monotherapy, plasma, day 5): 5,517.1 ng/mL
- AUC0-∞,ss, geometric mean ([3]; monotherapy, plasma, day 5, all subjects): 16,036.9 h*ng/mL
- AUC0-∞,ss, geometric mean ([3]; monotherapy, subjects with AUC_%Extrap >20.0% or Rsq <0.800 excluded): 15,576.5^a h*ng/mL
- AUC0-∞,ss, geometric mean ratio co-administration/monotherapy [3, 18]: 94.5%
- AUC0-∞,ss, intra-individual coefficient of variation [3, 18]: 18.8%
- safety in healthy volunteers [5]: no apparent safety concerns were noticed
- efficacy versus placebo (influenza A): higher efficacy than placebo in ameliorating influenza symptoms and lowering the viral load
- pulmonary viral loads and mortality (influenza A (2009 H1N1)): effectively reduced pulmonary viral loads and mortality
